Reference: PMC5435703 (Scientific Reports, 2017)
Converted amounts (≈) assume the structure as drawn. Where two headings read alike, the source gives them in different places. Marks after values point to notes of the source that are not given here.

Key:
MRSA BAA-1707 [1] = assay: MIC assay with metal(II) cation co-treatment; type: cell-based, Staphylococcus aureus; settings: Staphylococcus aureus
MRSA-2 = assay: MIC broth microdilution assay; type: cell-based, Staphylococcus aureus; settings: Staphylococcus aureus, MRSA; Table 1; read-out: MIC MRSA-2
MRSA BAA-1707 [2] = assay: MIC broth microdilution assay; type: cell-based, Staphylococcus aureus
VRE 700221 [3] = assay: MIC broth microdilution assay; type: cell-based, Enterococcus faecium
MRSA-1 = assay: MIC broth microdilution assay; type: cell-based, Staphylococcus aureus; settings: Staphylococcus aureus, MRSA; Table 1; read-out: MIC MRSA-1
S. epi 12228 = assay: MIC broth microdilution assay; type: cell-based, Staphylococcus epidermidis; settings: Staphylococcus epidermidis, 12228; Table 1; read-out: MIC S. epi 12228
MRSE 35984 [4] = assay: MIC broth microdilution assay; type: cell-based, Staphylococcus epidermidis; settings: for MIC: Staphylococcus epidermidis, MRSE
[5] = Hemolysis assay with red blood cells; settings: human, pH 7.2
MRSE 35984 [6] = assay: Calgary Biofilm Device (CBD) MBC/MBEC assay; type: cell-based, Staphylococcus epidermidis; settings: Staphylococcus epidermidis, MRSE; CBD, planktonic killing; read-out: MRSE 35984 MBC
[7] = LDH release assay for HeLa cytotoxicity; type: cell-based; settings: human, HeLa cells; LDH release, 24 hours; tested at 25, 50 and 100 µM; read-out: HeLa Cytotox. IC50
MRSA BAA-44 = assay: MIC broth microdilution assay; type: cell-based; settings: Staphylococcus aureus; Table 1; read-out: MIC MRSA BAA-44
MRSA BAA-1707 [8] = assay: Calgary Biofilm Device (CBD) MBC/MBEC assay; type: cell-based, Staphylococcus aureus; settings: Staphylococcus aureus, 24 h, CBD, planktonic killing, 24 hours treatment; read-out: MRSA BAA-1707 MBC
MtB H37Ra = assay: MIC assay for Mycobacterium tuberculosis; type: cell-based; settings: 168 h, seven days
VRE 700221 [9] = assay: Calgary Biofilm Device (CBD) MBC/MBEC assay; type: cell-based, Enterococcus faecium; settings: Enterococcus, VRE; CBD, planktonic killing; read-out: VRE 700221 MBC
[10] = Table 2, MRSA BAA-1707, no metal(II) cation added, read-out: MIC
[11] = copper(II) at 200 µM co-treatment, read-out: MIC w/Cu2+
[12] = iron(II) at 200 µM co-treatment, read-out: MIC w/Fe2+
[13] = magnesium(II) at 200 µM co-treatment, read-out: MIC w/Mg2+
[14] = zinc(II) at 200 µM co-treatment, read-out: MIC w/Zn2+
[15] = Staphylococcus aureus, Table 1, three independent experiments, read-out: MIC MRSA BAA-1707
[16] = Staphylococcus aureus, single plate shown as picture, read-out: MIC (µM), MIC Assay against MRSA BAA-1707
[17] = Enterococcus, VRE, Table 1, read-out: MIC VRE 700221
[18] = Table 1, read-out: MIC MRSE 35984

## Oc1cccc2nc3ccccc3nc12 [1-OHP, 1-hydroxyphenazine, reference compound]
MRSA BAA-1707 [1]; [10]
  MIC: 250 µM
MRSA BAA-1707 [1]; [11]
  MIC: 75 µM
MRSA BAA-1707 [1]; [12]
  MIC: 250 µM
MRSA BAA-1707 [1]; [13]
  MIC: 250 µM
MRSA BAA-1707 [1]; [14]
  MIC: > 500 µM

## Oc1cccc2cccnc12 [8-OHQ, 8-hydroxyquinoline, reference compound]
MRSA BAA-1707 [1]
  MIC: 9.38 µM
MRSA BAA-1707 [1]; read-out: MIC w/Cu2+
  MIC: 4.69 µM
MRSA BAA-1707 [1]; read-out: MIC w/Fe2+
  MIC: 12.5 µM
MRSA BAA-1707 [1]; read-out: MIC w/Mg2+
  MIC: 6.25 µM
MRSA BAA-1707 [1]; read-out: MIC w/Zn2+
  MIC: 12.5 µM

## C[C@H]1c2cccc(O)c2C(=O)C2=C(O)[C@]3(O)C(=O)C(C(N)=O)=C(O)[C@@H](N(C)C)[C@@H]3[C@@H](O)[C@@H]21 [Doxy., Doxycycline, reference compound]
MRSA BAA-1707 [1]; [10]
  MIC: 0.78 µM
MRSA BAA-1707 [1]; [11]
  MIC: 0.78 µM
MRSA BAA-1707 [1]; [12]
  MIC: 3.13 µM
MRSA BAA-1707 [1]; [13]
  MIC: 0.78 µM
MRSA BAA-1707 [1]; [14]
  MIC: 0.39 µM

## CCCCc1cc(Br)c(O)c2nc3ccccc3nc12 [HP 2]
MRSA-2
  MIC: 3.13 µM (≈ 1.04 µg/mL)
MRSA BAA-1707 [2]; [15]
  MIC: 0.78 µM (≈ 0.258 µg/mL)
MRSA BAA-1707 [2]; [16]
  MIC: 0.78 µM (≈ 0.258 µg/mL)
VRE 700221 [3]; [17]
  MIC: 0.78 µM (≈ 0.258 µg/mL)
MRSA-1
  MIC: 0.78 µM (≈ 0.258 µg/mL)

## Oc1c(Br)cc(Br)c2nc3ccc(Br)cc3nc12 [HP 3]
S. epi 12228
  MIC: 3.13 µM (≈ 1.35 µg/mL)
MRSA BAA-1707 [2]; [15]
  MIC: 0.2 µM (≈ 0.0866 µg/mL)
MRSE 35984 [4]; [18]
  MIC: 3.13 µM (≈ 1.35 µg/mL)

## Cc1cc(Br)c(O)c2nc3ccccc3nc12 [HP 4]
[5]
  hemolysis at 1 h, 200 µM: ≤ 1%
MRSA-2
  MIC: 3.13 µM (≈ 0.905 µg/mL)
S. epi 12228
  MIC: 3.13 µM (≈ 0.905 µg/mL)
MRSA BAA-1707 [2]; [15]
  MIC: 3.13 µM (≈ 0.905 µg/mL)
MRSA BAA-1707 [2]; Staphylococcus aureus, Table 3, read-out: MRSA BAA-1707 MIC
  MIC: 3.13 µM (≈ 0.905 µg/mL)
MRSA BAA-1707 [2]; [16]
  MIC: 3.13 µM (≈ 0.905 µg/mL)
MRSE 35984 [6]
  MBC: 150 µM (≈ 43.4 µg/mL)
[7]
  IC50 at 24 h: > 100 µM
MRSA BAA-44
  MIC: 50 µM (≈ 14.5 µg/mL)
VRE 700221 [3]; [17]
  MIC: 3.13 µM (≈ 0.905 µg/mL)
VRE 700221 [3]; Enterococcus, VRE, Table 3, read-out: VRE 700221 MIC
  MIC: 3.13 µM (≈ 0.905 µg/mL)
MRSA-1
  MIC: 50 µM (≈ 14.5 µg/mL)
MRSA BAA-1707 [8]
  MBC: 46.9 µM (≈ 13.6 µg/mL)

## Cc1cccc2nc3c(O)c(Br)cc(C)c3nc12 [HP 5]
MRSA BAA-1707 [2]; [15]
  MIC: 9.38 µM (≈ 2.84 µg/mL)
MRSA BAA-1707 [2]; [16]
  MIC: 12.5 µM (≈ 3.79 µg/mL)
VRE 700221 [3]; [17]
  MIC: > 100 µM
MRSA-1
  MIC: 37.5 µM (≈ 11.4 µg/mL)

## CCc1cccc2nc3c(O)c(Br)cc(C)c3nc12 [HP 6]
MRSE 35984 [4]; [18]
  MIC: 0.3 to 0.78 µM (≈ 0.0952 to 0.247 µg/mL)
MRSE 35984 [4]; Table 1
  MIC MRSE 35984: 0.30^a µM
VRE 700221 [3]; [17]
  MIC: 0.78 to 2.35 µM (≈ 0.247 to 0.745 µg/mL)
VRE 700221 [3]; Table 1, read-out: MIC VRE 700221
  MIC: 0.78 µM (≈ 0.247 µg/mL)
MRSA-1
  MIC: 0.78 µM (≈ 0.247 µg/mL)

## Cc1ccc2nc3c(O)c(Br)cc(C)c3nc2c1C [HP 7]
MRSA-1
  MIC: 50 µM (≈ 15.9 µg/mL)

## Cc1cc(Br)c(O)c2nc3cc(C(C)(C)C)ccc3nc12 [HP 8]
MRSA BAA-1707 [2]; [15]
  MIC: > 100 µM
MRSA BAA-1707 [2]; Table 1, three independent experiments, read-out: MIC MRSA BAA-1707
  MIC: >100 µM
MRSE 35984 [4]; [18]
  MIC: > 100 µM
MRSE 35984 [4]; single plate shown as picture, read-out: MIC (µM), MIC Assay Against MRSE 35984
  MIC: > 100 µM
VRE 700221 [3]; [17]
  MIC: > 100 µM
MRSA-1
  MIC: > 100 µM

## Cc1cc(Cl)c2nc3c(C)cc(Br)c(O)c3nc2c1 [HP 9]
[5]
  hemolysis at 1 h, 200 µM: ≤ 1%
MRSA-2
  MIC: 2.35 µM (≈ 0.793 µg/mL)
MRSE 35984 [6]
  MBC: 12.5 µM (≈ 4.22 µg/mL)
[7]
  IC50 at 24 h: > 100 µM
MRSA BAA-44
  MIC: 1.56 µM (≈ 0.527 µg/mL)
MtB H37Ra
  MIC: 50 µM (≈ 16.9 µg/mL)
MRSA-1
  MIC: 1.56 µM (≈ 0.527 µg/mL)
MRSA BAA-1707 [8]
  MBC: > 200 µM
VRE 700221 [9]
  MBC: 12.5 µM (≈ 4.22 µg/mL)

## CCc1cc(Br)c2nc3c(C)cc(Br)c(O)c3nc2c1 [HP 10]
MRSE 35984 [4]; [18]
  MIC: 37.5 µM (≈ 14.9 µg/mL)
VRE 700221 [3]; [17]
  MIC: 50 µM (≈ 19.8 µg/mL)
MRSA-1
  MIC: 50 µM (≈ 19.8 µg/mL)
